Measurements reported in patent US9012651B2, “TRPV3 modulators” (AbbVie Inc., priority 2011, dated 2015).

Tests used:
[1] = system: mouse Chronic Constriction Injury Model of neuropathic pain; assay: Chronic Constriction Injury (CCI) model of neuropathic pain, mechanical allodynia (von Frey); type: in vivo; settings: CD1 mice; acute oral administration, 100 mg/kg oral dose; 1 hour pretreatment P.O.; von Frey monofilaments
Text: Chronic Constriction Injury (CCI) Model of Neuropathic Pain:
CD1 mice (Charles River) were used for these studies. Prior to testing (2-4 weeks) animals underwent a surgical procedure consisting of approximately 3 loose ligatures around the sciatic nerve. Briefly, following sterilization procedures, under isofluorane anesthetic, a 1.5 cm incision was made dorsal to the pelvis. The biceps femoris and gluteous superficialis (right side) were separated and the sciatic nerve exposed, isolated, and 2-4 loose ligatures (5-0 chromic gut) with <1 mm spacing were placed around it. Following hemostasis, the wound was sutured (layer of muscle closed with 5-0 nylon suture, and the wound closed with surgical staples) and coated with iodine. The mice were allowed to recover on a warming plate and are returned to their home cages (soft bedding) when able to walk on their own. Two to four weeks after the surgery, TRPV3 antagonsists were tested in these mice following P.O. (1 hour pretreatment) or I.P. (30 minutes pretreatment) dosing, and mechanical allodynia evaluated where the threshold to response was assessed using calibrated von Frey monofilaments. The von Frey monofilaments were applied to the hind paw at increasing forces until the animal responded by lifting its paw. […]

human TRPV3 receptors = human TRPV3 receptors (Homo sapiens (Human), UniProt Q8NET8); assay: Calcium flux assay (FLIPR TETRA), inhibition of the 2-APB response; type: cell-based; settings: recombinant HEK293 cells stably expressing TRPV3, Calcium-4 dye, 2-APB at its EC80
Chain of human TRPV3 receptors (Q8NET8 whole entry): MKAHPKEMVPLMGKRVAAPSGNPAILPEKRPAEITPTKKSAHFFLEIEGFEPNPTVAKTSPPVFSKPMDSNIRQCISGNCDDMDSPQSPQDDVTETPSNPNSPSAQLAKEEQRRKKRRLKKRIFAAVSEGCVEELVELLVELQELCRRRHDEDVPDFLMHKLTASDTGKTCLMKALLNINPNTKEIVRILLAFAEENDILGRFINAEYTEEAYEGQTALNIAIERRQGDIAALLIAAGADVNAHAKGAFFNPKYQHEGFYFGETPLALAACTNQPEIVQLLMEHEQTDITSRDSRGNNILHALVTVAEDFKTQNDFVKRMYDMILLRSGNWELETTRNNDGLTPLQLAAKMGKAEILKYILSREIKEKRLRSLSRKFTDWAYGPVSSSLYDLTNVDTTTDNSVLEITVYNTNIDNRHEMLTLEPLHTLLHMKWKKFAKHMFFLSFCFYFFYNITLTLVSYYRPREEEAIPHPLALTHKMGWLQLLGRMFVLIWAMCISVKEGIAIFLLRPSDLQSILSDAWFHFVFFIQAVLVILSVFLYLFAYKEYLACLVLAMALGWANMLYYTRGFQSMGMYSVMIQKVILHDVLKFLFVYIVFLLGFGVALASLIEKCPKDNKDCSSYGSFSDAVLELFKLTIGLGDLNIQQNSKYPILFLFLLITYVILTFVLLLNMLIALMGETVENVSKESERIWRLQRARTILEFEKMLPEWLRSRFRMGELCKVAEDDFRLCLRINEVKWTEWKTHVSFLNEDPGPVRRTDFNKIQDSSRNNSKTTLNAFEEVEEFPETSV
In short: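 Responses are given relative to the maximal 2-APB signal in the absence of compound, using peak fluorescence over baseline. Measured by FLIPR Tetra calcium flux in stable human and mouse TRPV3 HEK293 cells after 90-120 min dark dye incubation.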

TRPV3 = TRPV3 activation; relatively weak and nonspecific across TRPs; cited from earlier work

SMILES: CC(C)[C@H](CO)NCc1nc(-c2ccc(C(F)(F)F)nc2)ccc1F [Example 28, (2R)-2-({[5-fluoro-6′-(trifluoromethyl)-2,3′-bipyridin-6-yl]methyl}amino)-3-methylbutan-1-ol]
- effects vs. vehicle in the mouse Chronic Constriction Injury Model of neuropathic pain [1]: statistically significant effects vs. vehicle
- IC50 (human TRPV3 receptors): 0.95 µM

SMILES: CC(C)[C@H](CO)NCc1nc(C2CCCCC2)ccc1F [Example 129]
- effects vs. vehicle in the mouse Chronic Constriction Injury Model of neuropathic pain [1]: statistically significant effects vs. vehicle
- IC50 (human TRPV3 receptors): 0.36 µM

SMILES: c1ccc(B(OB(c2ccccc2)c2ccccc2)c2ccccc2)cc1 [DPBA, diphenylboronic anhydride]
- EC50 (TRPV3): ~40 µM

SMILES: NCCOB(c1ccccc1)c1ccccc1 [Example 2-APB, 2-aminoethoxydiphenylborate]
- EC50 (TRPV3): ~40 µM
